Experimental data published in US7011834B1, “Immunomodulating dimers” (The Board of Trustees of Leland Stanford Junior University, priority 1987, dated 2006).

How the values were obtained:
[1] = tested on: PBL from normal donors; test: PBL proliferation with Conagglutinin A, 3H-thymidine incorporation; type: cell-based, human; conditions: approximate, purity not established
Method: To measure the effect of D-substitutions on proliferation, PBL from normal donors were cultured at 5×10^5 cells/round bottom microtiter well in RPMI-1640 supplemented with 10% fetal bovine serum and L-glutamine. Cultures were supplemented with Conagglutinin A. Cells were incubated at 37° C. for three days at which point ^3H-thymidine (1 μCi/well) was added. After 24 hours, wells were harvested and ^3H-thymidine incorporation determined by scintillation counter.

[2] = tested on: murine heart allograft; test: Murine heart allograft survival, C57B1/6 donor to CBA recipient; type: in vivo, mice
Method: Following the procedure set forth in Example 2C, daily administration of B2702.75-84 (80 mg/kg/day:ip) to CBA mice with (H-2^k) recipients of a C57B1/6 with (H-2^b) murine heart allograft prolonged graft survival to 11.4±2.6 days compared to 7.5±1.2 days in untreated control animals (n=8; p<0.01, Mann-Whitney U Test). The therapy using the same compound starting at day 5 after transplantation, prolonged graft survival to 9.2±0.4 days (n=5; p<0.02) indicating the subject composition could be useful in an ongoing rejection episode. In combination with a subtherapeutic dose of cyclosporin A (2.7 mg/kg/day; ip; day 0–4) the subject peptide prolonged graft survival to at least 45 days (3 grafts out of 4 still beating) compared to a median graft survival of 14 days in animals that received cyclosporin A monotherapy.
When the B2702.75-84 was prepared as the D-isomer (all amino acids in the D-form) and administered to murine graft recipients at 10 mg/kg/day (ip; day 0–10), graft survival was prolonged to more than 22 days in 4 out of 5 animals (4 grafts out of 5 still beating).

[3] = tested on: popliteal lymph node cells; test: Lymph node proliferation assay (footpad injection of splenocytes); type: in vivo, rat; conditions: treated within 24 hours of footpad injection; compared with approximately 3:1
Method: ACI or PVG rats (200 g) were injected intravenously with peptides dissolved in saline on day 0. On the indicated days thereafter, the left rear footpads of the rats were injected with 5×10^6 splenocytes from a syngeneic donor and the right rear footpads with 5×10^6 splenocytes from an allogeneic Lew donor (Moeller et al. Transplantation (1993) 55:650). See also Twist and Barnes Transplantation (1973) 15:182; Fanslow et al. Science (1990) 248:739). Seven days after the footpad injection, the animals were sacrificed and the popliteal lymph nodes removed. A single cell suspension was prepared, and the cell number determined using a hemocytometer.
PVG or ACI rats (3 per group) were given a single intravenous injection of 2 mg of each of the four peptides or saline. On the day of treatment, or on days 1, 7, or 10 after treatment, the right footpads were injected with 5×10^6 syngeneic splenocytes while the left footpads were injected with 5×10^6 allogeneic Lew splenocytes. Seven days after the footpad injections, the draining lymph nodes were removed, a single cell suspension was prepared, and the cell number determined.

[4] = tested on: CD8+CTL line specific for HLA-A2; test: Cytotoxicity assay: inhibition of lysis by established CTL, 51Cr-labeled JY targets; type: cell-based, human; conditions: JY targets; for % Specific Lysis: cell ratio 1:1, CTL line AJY
Method: Cytotoxicity Assay. CTL assays were performed as described using ^51Cr-labeled EBV transformed B cells expressing the appropriate HLA allele as targets [[…] et al., J. Immunol. (1982) 129:2001]. In the present protocol, a CD8+CTL line specific for HLA-A2 was tested in the presence of various peptides for lysis of ^51Cr-labeled JY targets. Peptides were added to a final concentration of 100 μg/ml at the initiation of the 4 h assay. Each determination was the mean of triplicate wells. […] In these determinations, inhibition of cytolysis, as described above, employed the CTL cell line AJY, a long term CD8+CTL line specific for HLA-A2 and the target cell was the B-lymphoblastoid cell line JY (HLA-A2, B7). The cytotoxicity assay was performed as described by Clayberger et al., J. Exp. Med. (1984) 162:1709-1714; and Reiss et al., Proc Natl Acad Sci USA (1980) 77:5432-5436. The peptides were preincubated for 30 min with 1-3×10^3 CTLs before addition of 10^3 51Cr-labeled B-lymphoblastoid target cells. The results are reported for varying concentrations of the peptide with varying ratios of the two cell lines.

[5] = tested on: rat splenocytes; test: Differentiation of rat splenocytes into allospecific CTL in vitro; type: cell-based; conditions: initial studies
Method: Therefore, we tested whether splenocytes obtained from rats treated with the peptides in vivo could differentiate into CTL ex vivo. In preliminary studies, the half-life of the B7.75-84 peptide was determined to be 2–3 hours in rats.

[6] = tested on: cardiac allograft; test: Heterotopic cardiac allograft survival, Lew donor to ACI recipient; type: in vivo, rat; conditions: peptide in two weeks before or 4 days after surgery plus CsA on days 0–4
Description: Vascularized cardiac allografts were heterotypically transplanted into the abdomen of recipient rats using a modification of the technique of Ono and Lindsay (Ono and Lindsey J. Thorac. Cardiovasc. Surg. (1969) 57:225). Abdominal allografts were palpated on a daily basis to assess graft function, and rejection was deemed complete when palpable ventricular contractions ceased.
Cyclosporin A (CsA, Sandoz Pharmaceuticals Corporation, Base, Switzerland) dissolved in olive oil was given orally through a gavage tube at the indicated dose. Peptides were dissolved in water or saline and given intravenously or by gavage as indicated.
Since the B7.75-84 and B2702.75-84 peptides blocked cellular immunity in vivo, we examined their effects on allograft survival in rats. ACI (RT1^a) recipients were given abdominal heterotopic heart allografts from Lew donors (Moeller et al. 1993, supra; Ono and Lindsey. 1969, supra). Graft function was monitored by daily abdominal palpation, and rejection was scored as complete when the palpable ventricular contractions ceased.

RENLRIALRY [B2702.75–84]
CPM ± SD (3H-thymidine incorporation) ([1]; peptide 50 μg/ml, Con A 1 mg/ml): 5,806 ± 721 CPM
CPM ± SD (3H-thymidine incorporation) ([1]; peptide 50 μg/ml, Con A 3 mg/ml): 32,618 ± 1582 CPM
CPM ± SD (3H-thymidine incorporation) ([1]; peptide 200 μg/ml, Con A 1 mg/ml): 2,322 ± 147 CPM
CPM ± SD (3H-thymidine incorporation) ([1]; peptide 200 μg/ml, Con A 3 mg/ml): 20,905 ± 2047 CPM
graft survival ([2]; 80 mg/kg/day ip daily, untreated 7.5±1.2 days, n=8): 11.4 ± 2.6 days
graft survival ([2]; peptide plus subtherapeutic cyclosporin A 2.7 mg/kg/day ip day 0–4): at least 45 days
graft survival ([2]; therapy starting at day 5 after transplantation, n=5): 9.2 ± 0.4 days
ratio of cells recovered from side injected with allogeneic versus syngeneic cells [3]: A similar ratio
inhibition of lysis by established CTL ([4]; HLA-A2 specific CD8+CTL, peptides 100 μg/ml, 4 h assay): inhibited lysis
% Specific Lysis ([4]; peptide 25 μg/ml): 23.9%
% Specific Lysis ([4]; peptide 100 μg/ml): 18.6%
% Specific Lysis ([4]; peptide 200 μg/ml): 16.4%
blocking of differentiation of rat splenocytes into allospecific CTL in vitro [5]: blocked the differentiation
rejection of transplants with peptide plus CsA [6]: rejected similarly to allografts in animals treated with CsA alone
